Drawing on ChEMBL document CHEMBL4813936, “Cyclopeptides from the Mushroom Pathogen Fungus Cladobotryum varium” (J Nat Prod, 2021), this text covers Activity for 3 molecules.

Assay [1] relates to HeLa. The assay can be described thus: Induction of autophagy in human HeLa cells expressing GFP-LC3 assessed as increase in punctate structures at 10 nM measured after 24 hrs by fluorescence microscopic analysis. Format: functional, cell-based.
In assay [2] the test system is HeLa. Nature of the assay: Induction of autophagy in human HeLa cells expressing GFP-LC3 assessed as suppression of autolysosome formation at 10 nM measured after 24 hrs by fluorescence microscopic analysis. Format: functional, cell-based.
Another assay deals with P388. The assay can be described thus: Cytotoxicity against mouse P388 cells measure after 72 hrs by XTT assay. Format: functional, cell-based. Background: Tetrazolium dyes change colour on reduction, which living cells bring about.
The next assay has as its system Kocuria rhizophila. The assay can be described thus: Antibacterial activity against Kocuria rhizophila ATCC9341 assessed as reduction in microbial growth after 20 hrs by liquid microculture method. Format: functional, organism-based.
In another assay the test system is Staphylococcus aureus. Nature of the assay: Antibacterial activity against Staphylococcus aureus FDA209P JC-1 assessed as reduction in microbial growth after 20 hrs by liquid microculture method. Format: functional, organism-based.
In assay [3] the test system is Agrobacterium tumefaciens. The assay can be described thus: Antibacterial activity against Rhizobium radiobacter NBRC14554 assessed as reduction in microbial growth after 20 hrs by liquid microculture method. Format: functional, organism-based.
A further assay has as its system Ralstonia solanacearum. Nature of the assay: Antibacterial activity against Ralstonia solanacearum assessed as reduction in microbial growth after 20 hrs by liquid microculture method. Format: functional, organism-based.
In another assay the test system is Candida albicans. The assay can be described thus: Antifungal activity against Candida albicans NBRC0197 assessed as reduction in microbial growth after 20 hrs by liquid microculture method. Format: functional, organism-based.
A further assay relates to Trichophyton rubrum. The assay can be described thus: Antifungal activity against Trichophyton rubrum NBRC5467 assessed as reduction in microbial growth after 20 hrs by liquid microculture method. Format: functional, organism-based.

Molecules are shown by their SMILES. Active and inactive are the calls of the source. No cut-off for these calls is given here. Where a SMILES comes first, the peptide text is derived from it. [ ]: non-standard residue; d: D form. NMeF = CN[C@@H](Cc1ccccc1)C(=O)O; Hica(2S) = CC(C)C[C@H](O)C(=O)O; βAla = NCCC(=O)O

Take `CC[C@H](C)[C@@H]1NC(=O)[C@H](CC(C)C)NC(=O)[C@H](Cc2ccccc2)NC(=O)[C@@H](Cc2ccccc2)NC(=O)[C@@H](Cc2ccccc2)NC1=O`: the outcome (in the assay on HeLa [1]; in the assay on HeLa [2]; with P388; in the assay with Kocuria rhizophila; in the assay on Staphylococcus aureus; in assay [3]) was inactive. Moreover, the result in the assay on Ralstonia solanacearum, in the assay with Candida albicans and in the assay with Trichophyton rubrum was inactive.
For the molecule `CC[C@H](C)[C@@H]1NC(=O)[C@@H]2CCCN2C(=O)[C@H](CC(C)C)OC(=O)CCNC(=O)[C@H](Cc2ccccc2)N(C)C(=O)[C@H](Cc2ccccc2)N(C)C1=O` (cyclo(I[NMeF][NMeF][βAla][Hica(2S)]P)), the result with HeLa [1] and in the assay on HeLa [2] was Active. Besides, the result (with P388; with Kocuria rhizophila; in the assay on Staphylococcus aureus; in assay [3]; in the assay on Ralstonia solanacearum; in the assay on Candida albicans) was inactive. Moreover, in the assay with Trichophyton rubrum, the result was inactive.
For the molecule `CC(C)C[C@@H]1OC(=O)CCNC(=O)[C@H](Cc2ccccc2)N(C)C(=O)[C@H](Cc2ccccc2)N(C)C(=O)[C@H](C(C)C)NC(=O)[C@@H]2CCCN2C1=O` (cyclo([Hica(2S)]PV[NMeF][NMeF][βAla])), the result (in the assay on HeLa [1]; in the assay with HeLa [2]; with P388; with Kocuria rhizophila; in the assay on Staphylococcus aureus; in [3]) was inactive. In addition, the outcome with Ralstonia solanacearum, in the assay with Candida albicans and with Trichophyton rubrum was inactive.
